Target: T1, human ACE2 protein (hACE2) (Homo sapiens, UniProt Q9BYF1)
T1 construct: His; purchased AbClonal (Woburn, MA, USA) RP01277; host or cells: HEK293
Assay: biochemical
Assay type: binding

T1 sequence (Q9BYF1 18-740): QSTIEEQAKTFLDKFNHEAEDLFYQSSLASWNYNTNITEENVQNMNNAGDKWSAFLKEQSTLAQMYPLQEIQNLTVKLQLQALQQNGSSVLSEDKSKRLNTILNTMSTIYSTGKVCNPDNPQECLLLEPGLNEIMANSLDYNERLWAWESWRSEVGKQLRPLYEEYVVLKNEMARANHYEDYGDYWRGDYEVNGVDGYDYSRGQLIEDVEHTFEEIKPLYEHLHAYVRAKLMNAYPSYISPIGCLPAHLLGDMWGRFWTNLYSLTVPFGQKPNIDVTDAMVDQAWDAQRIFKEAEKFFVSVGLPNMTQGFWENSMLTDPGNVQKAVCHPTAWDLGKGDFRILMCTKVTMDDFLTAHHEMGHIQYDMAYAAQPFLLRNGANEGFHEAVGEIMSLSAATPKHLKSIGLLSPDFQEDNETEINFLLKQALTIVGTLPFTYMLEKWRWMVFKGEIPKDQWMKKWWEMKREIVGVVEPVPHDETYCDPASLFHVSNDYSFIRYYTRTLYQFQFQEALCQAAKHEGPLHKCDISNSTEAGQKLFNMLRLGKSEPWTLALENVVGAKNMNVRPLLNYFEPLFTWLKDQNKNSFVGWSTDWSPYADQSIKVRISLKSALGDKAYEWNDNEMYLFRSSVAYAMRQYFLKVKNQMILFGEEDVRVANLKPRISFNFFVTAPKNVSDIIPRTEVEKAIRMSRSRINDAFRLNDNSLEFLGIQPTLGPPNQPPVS

SMILES	Kd [nM]	N (stoichiometry) (pH 7.4)	fold increase in binding affinity (pH 7.4) [fold]	thermodynamic signature (enthalpic vs entropic contribution) (pH 7.4)	ΔGITC (pH 7.4) [kcal/mol]	ΔHITC (pH 7.4) [kcal/mol]	−TΔSITC (pH 7.4) [kcal/mol]
CC(=O)NCC(=O)N[C@H](C(=O)N[C@@H](CCCCN)C(=O)NCC(=O)N[C@@H](Cc1ccccc1)C(=O)N[C@@H](CC(N)=O)C(=O)N[C@@H](CS)C(=O)N[C@@H](Cc1ccc(O)cc1)C(=O)N[C@@H](Cc1ccccc1)C(=O)N1CCC[C@H]1C(=O)N[C@@H](CC(C)C)C(=O)N[C@@H](CCC(N)=O)C(=O)N[C@@H](CO)C(=O)N[C@@H](Cc1ccc(O)cc1)C(=O)NCC(=O)N[C@@H](Cc1ccccc1)C(=O)N[C@@H](CCC(N)=O)C(=O)N1CCC[C@H]1C(=O)N[C@H](C(=O)N[C@@H](CC(N)=O)C(=O)NCC(N)=O)[C@@H](C)O)C(C)C [Zeta]	810 ± 60	0.76 ± 0.03	5.8	the enthalpic and entropic contributions are of comparable magnitude within the experimental error	-8.31 ± 0.07	-4.26 ± 0.24	-4.06 ± 0.25
CC(=O)NCC(=O)N[C@H](C(=O)N[C@@H](CCCCN)C(=O)NCC(=O)N[C@@H](Cc1ccccc1)C(=O)N[C@@H](CC(N)=O)C(=O)N[C@@H](CS)C(=O)N[C@@H](Cc1ccc(O)cc1)C(=O)N[C@@H](Cc1ccccc1)C(=O)N1CCC[C@H]1C(=O)N[C@@H](CC(C)C)C(=O)N[C@@H](CCC(N)=O)C(=O)N[C@@H](CO)C(=O)N[C@@H](Cc1ccc(O)cc1)C(=O)NCC(=O)N[C@@H](Cc1ccccc1)C(=O)N[C@@H](CCC(N)=O)C(=O)N1CCC[C@H]1C(=O)N[C@H](C(=O)N[C@@H](Cc1ccc(O)cc1)C(=O)NCC(N)=O)[C@@H](C)O)C(C)C [Beta/Gamma]	310 ± 80						

From paper PMC12071706, “Impact of SARS-CoV-2 RBM Mutations N501Y and E484K on ACE2 Binding: A Combined Computational and Experimental Study” (International Journal of Molecular Sciences, 2025)
